Measured values from patent publication US7652013B2, “Inhibitors of stearoyl-CoA desaturase” (Hoffman-La Roche Inc., priority 2007, dated 2010).

Target: T1, SCD1 (Mus musculus, UniProt P13516)
T1 construct: Mouse liver microsomes, prepared from mice fed a high carbohydrate diet, were a source of the SCD; from tissue; host or cells: mouse liver microsomes (mice fed a high carbohydrate diet)
T1 sequence (P13516 1-355): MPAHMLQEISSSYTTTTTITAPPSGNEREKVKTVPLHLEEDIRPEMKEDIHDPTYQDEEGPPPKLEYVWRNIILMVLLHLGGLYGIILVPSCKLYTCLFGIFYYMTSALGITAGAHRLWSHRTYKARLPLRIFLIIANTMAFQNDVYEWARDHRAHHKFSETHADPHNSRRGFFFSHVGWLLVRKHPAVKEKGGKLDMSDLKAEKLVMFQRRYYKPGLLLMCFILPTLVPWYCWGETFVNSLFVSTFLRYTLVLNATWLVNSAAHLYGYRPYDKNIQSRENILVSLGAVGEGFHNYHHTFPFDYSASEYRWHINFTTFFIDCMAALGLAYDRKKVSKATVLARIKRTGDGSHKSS
Experiment: SCD assay: release of tritiated water from desaturation of 9,10-3H-stearoyl CoA, mouse liver microsomes
Format: biochemical
From the text: Stearoyl CoA desaturase activity was monitored by a modification of the acyl carrier protein assay described by B. R. Talamo and K. Bloch in Anal. Biochem. 1968, 29, 300-304. The SCD assay monitors the release of tritiated water from the desaturation of 9,10-^3H-stearoyl CoA.
Mouse liver microsomes, prepared from mice fed a high carbohydrate diet, were a source of the SCD and cyt b5 and cyt b5 reductase, necessary accessory proteins for the coupled reaction. Reaction mixtures for compound titrations contained 50 mM Tris HCl pH 7.5, 100 mM NaCl, 0.165 mg/ml BSA, 2.4% DMSO, 1 mM NADH, 0.03% T-20, and 300 nM (9,10) ^3H-stearoyl CoA (Perkin-Elmer). Reactions were initiated upon the addition of 4 ug/ml SCD microsomes. Incubations were terminated after 25 minutes at room temperature with cold 6% TCA. After standing 10 minutes at 4 deg C., samples were centrifuged 15 minutes at 4000 rpm to pellet precipitated protein. Supernatants were added to microtiter plates containing suspensions of activated charcoal (Darco G-60, Fisher Scientific) and mixed by inversion. Plates were then centrifuged to separate ^3H—H2O product from charcoal-bound reactants. Supernatants were quantitated in a Perkin Elmer Topcount 384 after solubilization in ScintiSafe Plus 50% (Fisher Scientific).
Inhibition (%) of SCD activity by compounds was calculated according to the following formula: % Inhibition=100*[1−(CPMsample−CPMblank)/(CPMtotal−CPMblank)]

| IC50 | Structure (SMILES) |
| --- | --- |
| ≤ 1000 nM | C=CCc1cccc(CN2CCN(c3cc(=O)[nH]cn3)CC2)c1O [Example 40, 6-[4-(3-Allyl-2-hydroxy-benzyl)-piperazin-1-yl]-3H -pyrimidin-4-one] |
| ≤ 1000 nM | O=c1cc(N2CCN(Cc3cc([N+](=O)[O-])ccc3O)CC2)nc[nH]1 [Example 29, 6-[4-(2-Hydroxy-5-nitro-benzyl)-piperazin-1-yl]-3H -pyrimidin-4-one] |
| ≤ 1000 nM | O=c1cc(N2CCN(Cc3cccc(Cl)c3)CC2)nc[nH]1 [Example 12, 6-[4-(3-Chloro-benzyl)-piperazin-1-yl]-3H-pyrimidin-4-one] |
| ≥ 1100 nM | COc1ccc(Br)cc1CN1CCN(c2cc(=O)[nH]cn2)CC1 [Example 6, 6-[4-(5-Bromo-2-methoxy-benzyl)-piperazin-1-yl]-3H-pyrimidin-4-one] |
| ≥ 1100 nM | Cc1ccc(CN2CCN(c3cc(=O)[nH]cn3)CC2)c(C)c1 [Example 4, 6-[4-(2,4-Dimethyl-benzyl)-piperazin-1-yl]-3H-pyrimidin-4-one] |
| ≤ 1000 nM | COc1cc(I)cc(CN2CCN(c3cc(=O)[nH]cn3)CC2)c1O [Example 54, 6-[4-(2-Hydroxy-5-iodo-3-methoxy-benzyl)-piperazin-1-yl]-3H -pyrimidin-4-one] |
| ≤ 1000 nM | O=c1cc(N2CCN(Cc3cc(OC(F)(F)F)ccc3O)CC2)nc[nH]1 [Example 31, 6-[4-(2-Hydroxy-5-trifluoromethoxy-benzyl)-piperazin-1-yl]-3H -pyrimidin-4-one] |
| ≥ 1100 nM | O=c1cc(N2CCN(Cc3cccc4c3OCO4)CC2)nc[nH]1 [Example 37, 6-(4-Benzo[1,3]dioxol-4-ylmethyl-piperazin-1-yl)-3H -pyrimidin-4-one] |
| ≤ 1000 nM | O=c1cc(N2CCN(Cc3ccc(F)c(Cl)c3)CC2)nc[nH]1 [Example 22, 6-[4-(3-Chloro-4-fluoro-benzyl)-piperazin-1-yl]-3H -pyrimidin-4-one] |
| ≤ 1000 nM | O=c1cc(N2CCN(Cc3cc(C(F)(F)F)ccc3C(F)(F)F)CC2)nc[nH]1 [Example 9, 6-[4-(2,5-Bis-trifluoromethyl-benzyl)-piperazin-1-yl]-3H -pyrimidin-4-one] |
| ≥ 1100 nM | O=c1cc(N2CCN(Cc3cc(C(F)(F)F)ccc3Cl)CC2)nc[nH]1 [Example 23, 6-[4-(2-Chloro-5-trifluoromethyl-benzyl)-piperazin-1-yl]-3H-pyrimidin-4-one] |
| ≥ 1100 nM | O=c1cc(N2CCN(Cc3ccccc3-c3ccccc3)CC2)nc[nH]1 [Example 36, 6-(4-Biphenyl-2-ylmethyl-piperazin-1-yl)-3H-pyrimidin-4-one] |
| ≤ 1000 nM | Cc1cccc(CN2CCN(c3cc(=O)[nH]cn3)CC2)c1O [Example 38, 6-[4-(2-Hydroxy-3-methyl-benzyl)-piperazin-1-yl]-3H -pyrimidin-4-one] |
| ≤ 1000 nM | O=c1cc(N2CCN(Cc3cc(F)cc(F)c3O)CC2)nc[nH]1 [Example 44, 6-[4-(3,5-Difluoro-2-hydroxy-benzyl)-piperazin-1-yl]-3H-pyrimidin-4-one] |
| ≥ 1100 nM | N#Cc1cccc(CN2CCN(c3cc(=O)[nH]cn3)CC2)c1 [Example 10, 3-[4-(6-Oxo-1,6-dihydro-pyrimidin-4-yl)-piperazin-1-ylmethyl]-benzonitrile] |
| ≤ 1000 nM | O=c1cc(N2CCN(Cc3cc(Br)cc(Br)c3O)CC2)nc[nH]1 [Example 49, 6-[4-(3,5-Dibromo-2-hydroxy-benzyl)-piperazin-1-yl]-3H-pyrimidin-4-one] |

| IC50 | Structure (SMILES) |
| --- | --- |
| ≤ 1000 nM | O=c1cc(N2CCN(Cc3cc(I)ccc3O)CC2)nc[nH]1 [Example 51, 6-[4-(2-Hydroxy-5-iodo-benzyl)-piperazin-1-yl]-3H -pyrimidin-4-one] |
| ≥ 1100 nM | O=c1cc(N2CCN(Cc3c(Cl)cccc3Cl)CC2)nc[nH]1 [Example 14, 6-[4-(2,6-Dichloro-benzyl)-piperazin-1-yl]-3H-pyrimidin-4-one] |
| ≤ 1000 nM | Cc1cccc(C)c1CN1CCN(c2cc(=O)[nH]cn2)CC1 [Example 3, 6-[4-(2,6-Dimethyl-benzyl)-piperazin-1-yl]-3H-pyrimidin-4-one] |
| ≤ 1000 nM | O=c1cc(N2CCN(Cc3cccc(Br)c3)CC2)nc[nH]1 [Example 13, 6-[4-(3-Bromo-benzyl)-piperazin-1-yl]-3H-pyrimidin-4-one] |
| ≤ 1000 nM | O=c1cc(N2CCN(Cc3cc(Cl)ccc3[N+](=O)[O-])CC2)nc[nH]1 [Example 28, 6-[4-(5-Chloro-2-nitro-benzyl)-piperazin-1-yl]-3H -pyrimidin-4-one] |
| ≤ 1000 nM | O=c1cc(N2CCN(Cc3cc(Cl)cc(Cl)c3O)CC2)nc[nH]1 [Example 24, 6-[4-(3,5-Dichloro-2-hydroxy-benzyl)-piperazin-1-yl]-3H-pyrimidin-4-one] |
| ≤ 1000 nM | O=c1cc(N2CCN(Cc3cc(Br)ccc3O)CC2)nc[nH]1 [Example 25, 6-[4-(5-Bromo-2-hydroxy-benzyl)-piperazin-1-yl]-3H -pyrimidin-4-one] |
| ≥ 1100 nM | O=c1cc(N2CCN(Cc3cccc([N+](=O)[O-])c3)CC2)nc[nH]1 [Example 26, 6-[4-(3-Nitro-benzyl)-piperazin-1-yl]-3H-pyrimidin-4-one] |
| ≤ 1000 nM | O=c1cc(N2CCN(Cc3c(Cl)ccc(Cl)c3Cl)CC2)nc[nH]1 [Example 16, 6-[4-(2,3,6-Trichloro-benzyl)-piperazin-1-yl]-3H-pyrimidin-4-one] |
| ≤ 1000 nM | O=c1cc(N2CCN(Cc3cccc(F)c3O)CC2)nc[nH]1 [Example 42, 6-[4-(3-Fluoro-2-hydroxy-benzyl)-piperazin-1-yl]-3H -pyrimidin-4-one] |
| ≤ 1000 nM | O=c1cc(N2CCN(Cc3cc(Cl)cc(Br)c3O)CC2)nc[nH]1 [Example 50, 6-[4-(3-Bromo-5-chloro-2-hydroxy-benzyl)-piperazin-1-yl]-3H-pyrimidin-4-one] |
| ≥ 1100 nM | COc1ccc(CN2CCN(c3cc(=O)[nH]cn3)CC2)c(C)c1C [Example 5, 6-[4-(4-Methoxy-2,3-dimethyl-benzyl)-piperazin-1-yl]-3H-pyrimidin-4-one] |
| ≤ 1000 nM | O=c1cc(N2CCN(Cc3ccccc3[N+](=O)[O-])CC2)nc[nH]1 [Example 27, 6-[4-(2-Nitro-benzyl)-piperazin-1-yl]-3H-pyrimidin-4-one] |
| ≤ 1000 nM | COc1cc(Cl)cc(CN2CCN(c3cc(=O)[nH]cn3)CC2)c1O [Example 53, 6-[4-(5-Chloro-2-hydroxy-3-methoxy-benzyl)-piperazin-1-yl]-3H -pyrimidin-4-one] |
| ≥ 1100 nM | C=CCc1cc(CN2CCN(c3cc(=O)[nH]cn3)CC2)c(O)c(OC)c1 [Example 52, 6-[4-(5-Allyl-2-hydroxy-3-methoxy-benzyl)-piperazin-1-yl]-3H -pyrimidin-4-one] |

| Structure (SMILES) | IC50 |
| --- | --- |
| O=c1cc(N2CCN(Cc3ccccc3C(F)(F)F)CC2)nc[nH]1 [Example 8, 6-[4-(2-Trifluoromethyl-benzyl)-piperazin-1-yl]-3H -pyrimidin-4-one] | ≤ 1000 nM |
| O=c1cc(N2CCN(Cc3ccccc3Br)CC2)nc[nH]1 [Example 18, 6-[4-(2-Bromo-benzyl)-piperazin-1-yl]-3H-pyrimidin-4-one] | ≤ 1000 nM |
| O=c1cc(N2CCN(Cc3cc(F)ccc3Br)CC2)nc[nH]1 [Example 20, 6-[4-(2-Bromo-5-fluoro-benzyl)-piperazin-1-yl]-3H -pyrimidin-4-one] | ≤ 1000 nM |
| O=c1cc(N2CCN(Cc3cc(F)ccc3O)CC2)nc[nH]1 [Example 43, 6-[4-(5-Fluoro-2-hydroxy-benzyl)-piperazin-1-yl]-3H -pyrimidin-4-one] | ≤ 1000 nM |
| Cc1cccc(CN2CCN(c3cc(=O)[nH]cn3)CC2)c1 [Example 1, 6-[4-(3-Methyl-benzyl)-piperazin-1-yl]-3H-pyrimidin-4-one] | ≤ 1000 nM |
| Cc1ccc(O)c(CN2CCN(c3cc(=O)[nH]cn3)CC2)c1 [Example 39, 6-[4-(2-Hydroxy-5-methyl-benzyl)-piperazin-1-yl]-3H -pyrimidin-4-one] | ≤ 1000 nM |
| O=c1cc(N2CCN(Cc3ccc(F)c(F)c3)CC2)nc[nH]1 [Example 21, 6-[4-(3,4-Difluoro-benzyl)-piperazin-1-yl]-3H-pyrimidin-4-one] | ≤ 1000 nM |
| O=c1cc(N2CCN(Cc3ccc(Cl)c(Cl)c3)CC2)nc[nH]1 [Example 15, 6-[4-(3,4-Dichloro-benzyl)-piperazin-1-yl]-3H-pyrimidin-4-one] | ≤ 1000 nM |
| O=c1cc(N2CCN(Cc3cccc(Cl)c3O)CC2)nc[nH]1 [Example 45, 6-[4-(3-Chloro-2-hydroxy-benzyl)-piperazin-1-yl]-3H -pyrimidin-4-one] | ≤ 1000 nM |
| O=c1cc(N2CCN(Cc3cc(Cl)ccc3O)CC2)nc[nH]1 [Example 46, 6-[4-(5-Chloro-2-hydroxy-benzyl)-piperazin-1-yl]-3H -pyrimidin-4-one] | ≤ 1000 nM |
